Data: patent US11241438B2, “Formulations of an AXL/MER inhibitor” (Incyte Corporation, priority 2018, dated 2022)
Counter-ions that a name gives are not always drawn. Like-named read-outs stand apart in the source and are kept apart here.

How the values were obtained:
[1] = Solubility study in aqueous surfactant solutions; format: physicochemical; conditions: thermodynamic from solid, 37° C., after 60 minutes stirring, theoretical maximum 0.20 mg/ml, read-out: Concentration (solubility)
Description: The solubility of Compound I maleate was determined in aqueous solution in the presence of several surfactants at 37° C. The surfactants included sodium lauryl sulfate (SLS), poloxamer 188, and poloxamer 407 at a concentration of 0.2% (w/v) in water; a vessel without surfactant was included as a control. The experiment was performed in a Distek 2100 dissolution bath using 500 ml of media stirred at 100 RPM (USP type II dissolution apparatus). 100 mg of drug substance (free base equivalent) was added to the media to give a theoretical maximum concentration of 0.20 mg/ml. 5 ml samples were taken and filtered with a 0.45 micron GHP filter prior to analysis by HPLC. Listed below are the observed concentrations for the samples after 60 minutes of stirring time.

phosphor-Axl [2] = biological target: T1, phosphor-Axl (Homo sapiens (Human), UniProt P30530); assay: TAM enzymatic assay (HTRF), Axl; format: biochemical
Description: Axl Autophosphorylation Assay
Autophosphorylation of Axl was carried out by incubating the recombinant Axl protein (Life Technologies, PV4275) in buffer containing 50 mM Tris, pH7.5, 0.2 mg/ml Axl, 5 mM ATP, 20 mM MgCl2 and 2 mM DTT at room temperature for 1 hour.
(§1) The kinase assay buffer contained 50 mM HEPES, pH7.5, 10 mM MgCl2, 1 mM EGTA, 0.01% NP-40 and 2 mM DTT. 0.1 ul test compounds dissolved in DMSO were transferred from compound plates to white 384-well assay plates (Greiner […] plates). The final concentration of DMSO was 1.25%. Enzyme solutions of 5.1 nM phosphor-Axl, or 0.0625 nM c-Mer (Carna Biosciences, 08-108), or 0.366 nM Tyro3 (Life Technologies, PR7480A) were prepared in assay buffer. A 1 mM stock solution of peptide substrate Biotin-[…]-amide SEQ ID NO: 1 (Quality Controlled Biochemicals, MA) dissolved in DMSO was diluted to 1 uM in assay buffer containing 2000 uM ATP. 4 ul enzyme solution (or assay buffer for the enzyme blank) was added to the appropriate wells in each plate, and then 4 ul/well substrate solution was added to initiate the reaction. […] The plate was incubated for 1 h at room temperature, and HTRF (homogenous time resolved fluorescence) signal was measured on a PHERAstar FS plate reader (BMG labtech). Percentage of inhibition was calculated for each concentration and IC50 value was generated from curve fitting with GraphPad Prism software.

c-Mer [3] = biological target: T2, c-Mer (Homo sapiens (Human), UniProt Q12866); assay: TAM enzymatic assay (HTRF), Mer; format: biochemical
Description: as §1, with “reaction. The plate was protected from light and incubated at room temperature for 60 min.” for “reaction.”

c-Mer [4] = biological target: T2, c-Mer; conditions: data disclosed in U.S. Pat. No. 9,981,975; cited from earlier work
phosphor-Axl [5] = biological target: T1, phosphor-Axl; conditions: data disclosed in U.S. Pat. No. 9,981,975; cited from earlier work

T1 sequence (P30530 26-894): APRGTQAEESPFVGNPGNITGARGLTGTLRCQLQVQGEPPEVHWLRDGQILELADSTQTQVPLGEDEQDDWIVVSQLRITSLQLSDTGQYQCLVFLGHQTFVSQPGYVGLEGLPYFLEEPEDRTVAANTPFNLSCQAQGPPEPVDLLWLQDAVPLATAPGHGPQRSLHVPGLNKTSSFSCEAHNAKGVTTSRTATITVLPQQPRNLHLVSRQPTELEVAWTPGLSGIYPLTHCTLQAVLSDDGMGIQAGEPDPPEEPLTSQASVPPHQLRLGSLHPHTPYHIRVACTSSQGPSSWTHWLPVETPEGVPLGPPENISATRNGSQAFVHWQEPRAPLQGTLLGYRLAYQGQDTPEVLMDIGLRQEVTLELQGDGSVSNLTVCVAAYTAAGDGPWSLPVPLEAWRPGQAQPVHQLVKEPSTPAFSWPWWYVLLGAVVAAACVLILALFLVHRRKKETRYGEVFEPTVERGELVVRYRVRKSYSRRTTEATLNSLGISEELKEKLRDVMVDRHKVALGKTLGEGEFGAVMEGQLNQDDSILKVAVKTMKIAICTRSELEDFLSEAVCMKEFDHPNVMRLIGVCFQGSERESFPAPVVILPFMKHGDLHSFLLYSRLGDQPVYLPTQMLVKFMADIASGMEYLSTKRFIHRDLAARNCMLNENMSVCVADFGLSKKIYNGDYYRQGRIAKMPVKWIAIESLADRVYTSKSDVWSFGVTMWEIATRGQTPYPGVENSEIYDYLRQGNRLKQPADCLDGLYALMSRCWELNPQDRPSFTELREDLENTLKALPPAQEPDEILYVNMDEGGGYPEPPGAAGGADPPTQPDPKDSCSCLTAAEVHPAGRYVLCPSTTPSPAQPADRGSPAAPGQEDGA
T2 sequence (Q12866 21-999): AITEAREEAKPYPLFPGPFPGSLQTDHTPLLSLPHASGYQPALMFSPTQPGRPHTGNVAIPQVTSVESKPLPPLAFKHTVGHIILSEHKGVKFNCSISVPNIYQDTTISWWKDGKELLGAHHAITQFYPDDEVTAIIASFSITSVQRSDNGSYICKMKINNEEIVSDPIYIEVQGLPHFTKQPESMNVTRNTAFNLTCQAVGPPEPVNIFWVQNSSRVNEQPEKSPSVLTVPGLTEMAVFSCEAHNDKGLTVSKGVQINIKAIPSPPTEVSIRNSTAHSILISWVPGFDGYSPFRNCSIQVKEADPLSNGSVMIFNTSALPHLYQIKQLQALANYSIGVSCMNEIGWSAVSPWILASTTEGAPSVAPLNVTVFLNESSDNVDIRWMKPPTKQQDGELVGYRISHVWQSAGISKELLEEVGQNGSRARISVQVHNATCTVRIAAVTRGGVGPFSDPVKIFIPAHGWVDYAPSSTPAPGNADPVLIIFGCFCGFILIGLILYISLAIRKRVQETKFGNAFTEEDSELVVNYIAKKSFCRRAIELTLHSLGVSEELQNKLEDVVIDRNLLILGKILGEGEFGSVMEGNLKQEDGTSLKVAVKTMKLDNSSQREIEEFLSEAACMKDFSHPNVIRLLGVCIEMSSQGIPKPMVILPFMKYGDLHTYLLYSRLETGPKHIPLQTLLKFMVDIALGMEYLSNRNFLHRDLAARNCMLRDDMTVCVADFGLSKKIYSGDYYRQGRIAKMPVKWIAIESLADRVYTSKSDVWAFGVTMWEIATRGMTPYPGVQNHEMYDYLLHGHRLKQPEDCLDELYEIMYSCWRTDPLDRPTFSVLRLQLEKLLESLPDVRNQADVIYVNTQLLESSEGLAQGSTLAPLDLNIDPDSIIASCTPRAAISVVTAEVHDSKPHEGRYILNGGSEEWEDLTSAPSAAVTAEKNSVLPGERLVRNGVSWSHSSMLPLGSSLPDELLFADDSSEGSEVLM

With CC(C)C(=O)N1CCC(c2cc(-c3ccc(NC(=O)c4cn(C(C)C)c(=O)n(-c5ccccn5)c4=O)cc3)c3c(N)ncnn23)CC1.O=C(O)/C=C\C(=O)O [Compound I maleate, N-(4-(4-amino-7-(1-isobutyrylpiperidin-4-yl)pyrrolo[2,1-f][1,2,4]triazin-5-yl)phenyl)-1-isopropyl-2,4-dioxo-3-(pyridin-2-yl)-1,2,3,4-tetrahydropyrimidine-5-carboxamide maleate] the solubility at 60 min ([1]; 0.2% (w/v) poloxamer 188 in water, aqueous with cosolvent or surfactant or cyclodextrin, 0.2% Poloxamer 188 in water) was 18 µg/mL, the solubility at 60 min ([1]; 0.2% (w/v) poloxamer 407 in water, aqueous with cosolvent or surfactant or cyclodextrin, 0.2% Poloxamer 407 in water) was 9 µg/mL and the solubility at 60 min ([1]; 0.2% (w/v) sodium lauryl sulfate in water, aqueous with cosolvent or surfactant or cyclodextrin, 0.2% SLS in water) was greater than 200 µg/mL. It also gave a solubility at 60 min ([1]; water without surfactant (control), water (no surfactant)) of 7 µg/mL, an IC50 (phosphor-Axl [2]) of less than 5 nM and an IC50 (c-Mer [3]) of less than 5 nM.

For CC(C)C(=O)N1CCC(c2cc(-c3ccc(NC(=O)c4cn(C(C)C)c(=O)n(-c5ccccn5)c4=O)cc3)c3c(N)ncnn23)CC1 [Compound I trifluoroacetic acid salt], the IC50 (c-Mer [4]) is given as less than 5 nM and the IC50 (phosphor-Axl [5]) is given as less than 5 nM.
